Measured values taken from ChEMBL document CHEMBL1201862, “PubChem BioAssay data set” (2004).
The source made the active and inactive calls.

What was measured:
[1] = molecular target: T1, Short transient receptor potential channel 4 (Mus musculus, UniProt Q9QUQ5); experiment: block of DAMGO-driven TRPC4 calcium entry – cell-based, HEK293 TRPC4/mu-opioid, Fluo-4 calcium, dose response (AID 434942); format: functional;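 also: potency of inhibitors blocking the TRPC4 calcium response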
T1 sequence (Q9QUQ5 whole entry): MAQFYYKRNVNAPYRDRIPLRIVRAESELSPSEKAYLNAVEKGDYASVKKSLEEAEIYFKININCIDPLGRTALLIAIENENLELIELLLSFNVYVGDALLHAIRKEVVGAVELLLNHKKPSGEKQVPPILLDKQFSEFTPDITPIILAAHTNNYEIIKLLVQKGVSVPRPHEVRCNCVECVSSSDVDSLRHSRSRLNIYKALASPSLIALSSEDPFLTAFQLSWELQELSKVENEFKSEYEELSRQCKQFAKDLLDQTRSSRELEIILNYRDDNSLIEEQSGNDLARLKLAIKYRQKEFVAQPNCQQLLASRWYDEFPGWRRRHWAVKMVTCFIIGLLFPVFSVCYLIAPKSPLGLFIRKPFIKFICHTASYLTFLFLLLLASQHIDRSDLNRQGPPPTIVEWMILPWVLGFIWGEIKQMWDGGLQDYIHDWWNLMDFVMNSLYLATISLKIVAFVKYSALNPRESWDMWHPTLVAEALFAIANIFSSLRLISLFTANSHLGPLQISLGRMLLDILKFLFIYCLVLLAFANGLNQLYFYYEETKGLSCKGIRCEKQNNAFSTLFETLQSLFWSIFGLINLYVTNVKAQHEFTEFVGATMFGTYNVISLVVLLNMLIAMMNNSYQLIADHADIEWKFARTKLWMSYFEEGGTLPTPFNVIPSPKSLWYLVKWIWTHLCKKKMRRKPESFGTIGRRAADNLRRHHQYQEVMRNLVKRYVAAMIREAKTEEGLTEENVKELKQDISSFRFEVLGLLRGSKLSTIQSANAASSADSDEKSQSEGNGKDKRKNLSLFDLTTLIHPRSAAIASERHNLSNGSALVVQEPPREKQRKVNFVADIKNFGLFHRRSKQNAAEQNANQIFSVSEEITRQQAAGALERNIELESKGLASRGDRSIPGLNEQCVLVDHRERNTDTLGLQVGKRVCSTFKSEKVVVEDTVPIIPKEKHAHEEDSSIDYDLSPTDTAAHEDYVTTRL

[2] = molecular target: T2, Calpain-2 catalytic subunit (Sus scrofa, UniProt P43367); experiment: m-calpain protease blockers, concentration series – biochemical, fluorogenic peptide substrate, dose response (AID 1420); format: functional
T2 sequence (P43367 whole entry): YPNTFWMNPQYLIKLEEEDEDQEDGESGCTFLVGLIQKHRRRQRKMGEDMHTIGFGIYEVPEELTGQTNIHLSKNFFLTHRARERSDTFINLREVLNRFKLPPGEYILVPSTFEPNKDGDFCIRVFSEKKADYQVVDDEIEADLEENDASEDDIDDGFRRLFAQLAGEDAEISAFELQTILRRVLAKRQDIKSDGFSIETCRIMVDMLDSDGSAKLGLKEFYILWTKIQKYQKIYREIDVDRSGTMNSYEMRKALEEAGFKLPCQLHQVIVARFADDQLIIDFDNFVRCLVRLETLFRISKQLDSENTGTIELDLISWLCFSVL

[3] = molecular target: T3, Rac GTPase-activating protein 1 (Homo sapiens, UniProt Q9H0H5); experiment: blockers of MgcRacGAP-driven Rac1 GTP hydrolysis – biochemical, ADP Hunter fluorescence, primary and confirmatory, confirmation (AID 624330); format: functional
T3 sequence (Q9H0H5 whole entry): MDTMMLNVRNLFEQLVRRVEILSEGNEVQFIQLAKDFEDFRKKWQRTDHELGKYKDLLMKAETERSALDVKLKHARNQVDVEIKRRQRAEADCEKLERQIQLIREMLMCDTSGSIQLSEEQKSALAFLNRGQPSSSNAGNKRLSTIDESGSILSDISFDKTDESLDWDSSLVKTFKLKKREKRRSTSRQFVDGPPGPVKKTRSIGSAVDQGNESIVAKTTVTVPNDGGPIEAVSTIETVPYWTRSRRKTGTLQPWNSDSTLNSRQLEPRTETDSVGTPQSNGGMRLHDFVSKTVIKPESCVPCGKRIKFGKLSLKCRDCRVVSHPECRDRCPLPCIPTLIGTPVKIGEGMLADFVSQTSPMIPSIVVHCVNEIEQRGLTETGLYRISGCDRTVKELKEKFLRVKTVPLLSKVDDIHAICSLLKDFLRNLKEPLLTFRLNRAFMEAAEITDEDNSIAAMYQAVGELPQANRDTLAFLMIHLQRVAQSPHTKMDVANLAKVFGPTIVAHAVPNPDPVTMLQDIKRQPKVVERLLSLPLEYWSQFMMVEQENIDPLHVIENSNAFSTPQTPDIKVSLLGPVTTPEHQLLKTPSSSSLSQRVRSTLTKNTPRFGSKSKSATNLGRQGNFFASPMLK

[4] = viability loss in THP-1 monocytes – THP-1 cells, cytotoxicity control for Vif-APOBEC3G degradation inhibitor project, dose response (AID 1117359); format: functional; conditions: THP-1
[5] = A cytotoxicity screen of small molecule inhibitors of the PhoP region in Salmonella typhi identified in the primary screen. [Related pubchem assays: 1850, 1864, 1985 ]; format: functional
[6] = test system: BJ; experiment: BJ-TERT-LT-ST fibroblast viability loss – cell-based, RAS-independent, luminescence, dose response (AID 1935); format: functional; conditions: Homo sapiens;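 also: BJ fibroblasts immortalized with TERT plus LT and ST oncogenes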
[7] = test system: BJ; experiment: cells; format: functional, cell-based; conditions: Homo sapiens
[8] = DRD fibroblast viability loss – cell-based, non-viral oncogenic, luminescence, dose response (AID 1934); format: functional; conditions: Homo sapiens
[9] = test system: BJ; experiment: BJ-TERT fibroblast viability loss – cell-based, RAS-independent, luminescence, dose response (AID 1933); format: functional; conditions: Homo sapiens
[10] = test system: HEK293; experiment: NOD2 signaling inhibitors in MDP-stimulated cells, cell-based, uHTS, luminescence (AID 2001); format: functional; conditions: Homo sapiens
[11] = test system: HEK293; experiment: cells; format: functional, cell-based; conditions: Homo sapiens
[12] = test system: HEK293; experiment: cells; format: functional, cell-based; conditions: Homo sapiens; remark: listed apart in the source
[13] = test system: HEK293; experiment: cells; format: functional, cell-based; conditions: Homo sapiens; remark: listed apart in the source
[14] = test system: Streptococcus; experiment: GAS UMAA2166 growth inhibition – luminescence, BacTiterGlo, counter-screen for streptokinase expression inhibitor project, dose response (AID 1915); format: functional, organism-based;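 also: potency for reduction of bacterial viability or growth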
[15] = molecular target: T4, Streptokinase A (Streptococcus pyogenes serotype M1, UniProt P10520); experiment: viability-normalized secreted streptokinase activity reduction – plasminogen activation absorbance, OD405, dose response (AID 1914); format: functional, Streptococcus pyogenes M1 GAS;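 also: secreted streptokinase activity via plasminogen activation per viability signal from cell pellet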
T4 sequence (P10520 whole entry): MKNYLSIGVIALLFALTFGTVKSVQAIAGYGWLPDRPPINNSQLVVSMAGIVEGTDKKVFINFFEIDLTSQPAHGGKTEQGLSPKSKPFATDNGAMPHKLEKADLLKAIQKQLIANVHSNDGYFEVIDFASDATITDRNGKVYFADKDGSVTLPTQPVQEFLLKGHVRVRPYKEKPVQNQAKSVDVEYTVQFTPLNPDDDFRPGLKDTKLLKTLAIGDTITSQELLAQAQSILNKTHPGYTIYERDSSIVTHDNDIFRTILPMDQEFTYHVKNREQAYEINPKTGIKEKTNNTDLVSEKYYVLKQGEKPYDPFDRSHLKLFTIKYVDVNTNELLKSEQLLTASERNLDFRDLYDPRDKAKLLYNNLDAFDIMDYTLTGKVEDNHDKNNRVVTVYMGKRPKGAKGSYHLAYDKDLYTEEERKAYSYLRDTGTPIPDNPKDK

[16] = test system: HEK293; experiment: inhibition of NOD1-driven NF-kB reporter – cell-based, luminescence, uHTS, primary screen (AID 1578); format: functional; conditions: Homo sapiens
[17] = molecular target: Nucleotide-binding oligomerization domain-containing protein 2 (Homo sapiens, UniProt Q9HC29); experiment: inhibition of NOD2-driven NF-kB reporter – cell-based, luminescence, uHTS, HEK293 (AID 1566); format: functional
Nucleotide-binding oligomerization domain-containing protein 2, sequence (Q9HC29 whole entry, the tested form may be a part): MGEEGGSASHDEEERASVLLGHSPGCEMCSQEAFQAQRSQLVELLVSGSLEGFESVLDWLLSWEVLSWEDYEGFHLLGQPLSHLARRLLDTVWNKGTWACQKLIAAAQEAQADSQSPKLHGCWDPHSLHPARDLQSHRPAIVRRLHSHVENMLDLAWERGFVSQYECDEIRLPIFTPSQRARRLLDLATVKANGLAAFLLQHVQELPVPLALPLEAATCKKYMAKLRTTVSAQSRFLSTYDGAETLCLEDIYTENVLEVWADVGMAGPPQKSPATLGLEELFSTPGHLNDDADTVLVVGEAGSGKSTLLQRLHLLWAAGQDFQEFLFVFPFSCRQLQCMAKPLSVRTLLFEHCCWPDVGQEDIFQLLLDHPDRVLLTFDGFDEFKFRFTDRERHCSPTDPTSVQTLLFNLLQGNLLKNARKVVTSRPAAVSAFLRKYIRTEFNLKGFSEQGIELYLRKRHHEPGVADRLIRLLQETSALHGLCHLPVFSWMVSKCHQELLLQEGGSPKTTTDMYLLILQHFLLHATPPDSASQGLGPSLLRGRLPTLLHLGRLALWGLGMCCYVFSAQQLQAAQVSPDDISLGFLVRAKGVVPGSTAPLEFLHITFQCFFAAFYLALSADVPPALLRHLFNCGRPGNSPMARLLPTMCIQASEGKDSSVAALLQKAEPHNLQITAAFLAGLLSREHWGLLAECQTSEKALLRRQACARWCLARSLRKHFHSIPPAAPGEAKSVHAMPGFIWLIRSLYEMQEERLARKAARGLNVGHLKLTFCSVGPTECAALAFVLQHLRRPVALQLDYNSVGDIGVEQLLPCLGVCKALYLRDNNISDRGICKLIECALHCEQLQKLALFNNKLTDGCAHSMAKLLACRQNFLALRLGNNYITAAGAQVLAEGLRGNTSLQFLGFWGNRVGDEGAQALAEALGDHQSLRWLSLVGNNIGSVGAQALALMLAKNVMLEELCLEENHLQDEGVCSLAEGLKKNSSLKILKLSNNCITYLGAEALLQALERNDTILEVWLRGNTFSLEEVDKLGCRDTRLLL

[18] = test system: Streptococcus sp. 'group A'; experiment: Streptococcus pyogenes SK(-)GAS viability under kanamycin – luminescence, BacTiterGlo, confirmation, counter-screen for streptokinase expression inhibitor project, dose response (AID 1900); format: functional, organism-based
[19] = HEK-293T cell viability reduction – luminescence, B-cell screen hits, cytotoxicity control for BCR NF-kB inhibitor project, dose response (AID 489021); format: functional, cell-based;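 also: HEK-293T cells carrying an NF-kB luciferase reporter; cells exposed to compound for about 14 hours before viability readout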
[20] = Luminescence Cell-Based Dose Response HTS to Identify Inhibitors of 5'UTR Stem-Loop Driven Prion Protein mRNA Translation in H4 Neuroglioblastoma Cells. [Related pubchem assays: 1827 (Project Summary), 1813 (Primary HTS)]; format: functional
[21] = luciferase reporter signal suppression in cells – H4 neuroglioma cells, luminescence, dose response (AID 1990); format: functional, cell-based
[22] = alpha-synuclein stem-loop luciferase translation blockers – H4 neuroglioma cells, luminescence, confirmation (AID 1988); format: functional, cell-based
[23] = NIH3T3 cell viability loss – ATP luminescence, mouse fibroblasts, counter-screen, dose response (AID 2010); format: functional, cell-based;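 also: cells exposed to compound for about 90 hours before reading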
[24] = microbe, parasite or virus in culture; format: functional; conditions: Mycobacterium tuberculosis
[25] = Trypanosoma cruzi growth suppression in host cells – NIH3T3 host cells, beta-gal luminescence, confirmation (AID 2044); format: functional, cell-based;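 also: intracellular parasites grown in NIH/3T3 mouse fibroblasts as host cells; luminescent beta-galactosidase reporter signal from transgenic T. cruzi replicating inside host cells; inhibitors lower the luminescence signal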
[26] = HEK-293T viability loss after treatment – luminescence, T-cell screen hits, cytotoxicity control for TCR NF-kB inhibitor project, dose response (AID 489026); format: functional, cell-based;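 also: cells exposed to compound about 14 hours before the viability readout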
[27] = molecular target: Peroxisome proliferator-activated receptor gamma/Nuclear receptor coactivator 3 (Homo sapiens, UniProt P37231); format: functional;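 also: agonist potency for raising coactivator recruitment to the receptor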
[28] = molecular target: Peroxisome proliferator-activated receptor gamma/Nuclear receptor coactivator 2 (Homo sapiens, UniProt P37231); format: functional;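 also: agonist potency for raising coactivator recruitment to the receptor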
[29] = molecular target: Peroxisome proliferator-activated receptor gamma/Nuclear receptor coactivator 1 (Homo sapiens, UniProt P37231); format: functional;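 also: agonist potency as compounds enhance coactivator SRC-1 recruitment to PPARgamma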
Peroxisome proliferator-activated receptor gamma/Nuclear receptor coactivator 1, sequence (P37231 whole entry): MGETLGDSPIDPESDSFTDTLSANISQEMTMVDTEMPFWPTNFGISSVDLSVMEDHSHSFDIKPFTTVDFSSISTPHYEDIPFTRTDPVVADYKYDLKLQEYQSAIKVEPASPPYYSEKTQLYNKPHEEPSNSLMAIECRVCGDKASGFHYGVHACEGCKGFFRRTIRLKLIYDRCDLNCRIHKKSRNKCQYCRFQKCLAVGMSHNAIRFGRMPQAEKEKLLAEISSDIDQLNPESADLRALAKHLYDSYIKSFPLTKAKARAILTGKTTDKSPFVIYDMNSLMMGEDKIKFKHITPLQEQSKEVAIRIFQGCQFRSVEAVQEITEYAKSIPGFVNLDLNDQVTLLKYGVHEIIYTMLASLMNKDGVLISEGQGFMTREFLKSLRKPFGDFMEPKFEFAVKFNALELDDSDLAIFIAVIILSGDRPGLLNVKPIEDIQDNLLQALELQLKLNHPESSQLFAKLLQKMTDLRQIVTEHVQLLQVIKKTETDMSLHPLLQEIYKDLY
Peroxisome proliferator-activated receptor gamma/Nuclear receptor coactivator 1, sequence (Q15788 whole entry, further chain): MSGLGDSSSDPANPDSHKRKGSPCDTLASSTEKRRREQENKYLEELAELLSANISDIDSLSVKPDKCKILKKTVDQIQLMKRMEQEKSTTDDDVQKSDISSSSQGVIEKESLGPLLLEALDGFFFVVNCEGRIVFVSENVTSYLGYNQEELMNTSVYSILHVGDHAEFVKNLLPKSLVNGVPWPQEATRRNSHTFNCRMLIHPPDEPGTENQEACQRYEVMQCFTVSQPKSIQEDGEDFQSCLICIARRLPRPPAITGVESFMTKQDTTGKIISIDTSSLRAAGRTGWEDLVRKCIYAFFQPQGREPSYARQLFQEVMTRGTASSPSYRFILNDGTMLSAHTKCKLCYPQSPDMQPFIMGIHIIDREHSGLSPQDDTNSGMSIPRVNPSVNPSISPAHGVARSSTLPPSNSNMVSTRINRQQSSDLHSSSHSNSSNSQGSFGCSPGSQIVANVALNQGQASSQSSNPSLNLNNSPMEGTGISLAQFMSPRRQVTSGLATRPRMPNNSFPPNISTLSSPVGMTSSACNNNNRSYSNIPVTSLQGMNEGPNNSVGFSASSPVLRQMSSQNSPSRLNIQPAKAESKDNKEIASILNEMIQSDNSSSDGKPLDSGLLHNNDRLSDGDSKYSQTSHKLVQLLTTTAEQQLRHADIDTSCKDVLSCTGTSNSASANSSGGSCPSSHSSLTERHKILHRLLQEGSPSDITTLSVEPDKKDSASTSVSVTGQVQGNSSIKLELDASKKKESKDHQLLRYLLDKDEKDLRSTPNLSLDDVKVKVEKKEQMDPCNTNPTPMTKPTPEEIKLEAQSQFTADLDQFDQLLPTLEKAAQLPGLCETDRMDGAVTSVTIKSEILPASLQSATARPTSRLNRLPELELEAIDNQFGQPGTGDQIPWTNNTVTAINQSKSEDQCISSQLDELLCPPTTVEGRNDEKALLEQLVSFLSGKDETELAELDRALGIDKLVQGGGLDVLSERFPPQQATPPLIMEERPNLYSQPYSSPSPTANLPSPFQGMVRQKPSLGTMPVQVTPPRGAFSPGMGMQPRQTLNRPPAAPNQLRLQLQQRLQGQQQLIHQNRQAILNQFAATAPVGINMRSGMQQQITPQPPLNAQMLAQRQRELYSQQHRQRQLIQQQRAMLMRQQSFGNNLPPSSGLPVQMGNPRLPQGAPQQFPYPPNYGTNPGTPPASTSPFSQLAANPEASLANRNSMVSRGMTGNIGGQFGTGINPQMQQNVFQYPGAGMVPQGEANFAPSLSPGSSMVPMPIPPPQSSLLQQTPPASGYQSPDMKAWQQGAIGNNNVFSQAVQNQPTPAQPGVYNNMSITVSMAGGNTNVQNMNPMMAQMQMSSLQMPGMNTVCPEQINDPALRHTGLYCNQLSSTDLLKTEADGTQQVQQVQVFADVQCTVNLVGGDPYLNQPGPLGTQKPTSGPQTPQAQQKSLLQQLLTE

[30] = molecular target: Cytochrome P450 2C19 (Homo sapiens, UniProt P33261); experiment: Cytochrome panel assay with activity outcomes. Panel member name: p450-cyp2c19 Compounds with AC50 equal or less than 10 uM are considered active; format: functional; conditions: read-out: AC50
Cytochrome P450 2C19, sequence (P33261 whole entry): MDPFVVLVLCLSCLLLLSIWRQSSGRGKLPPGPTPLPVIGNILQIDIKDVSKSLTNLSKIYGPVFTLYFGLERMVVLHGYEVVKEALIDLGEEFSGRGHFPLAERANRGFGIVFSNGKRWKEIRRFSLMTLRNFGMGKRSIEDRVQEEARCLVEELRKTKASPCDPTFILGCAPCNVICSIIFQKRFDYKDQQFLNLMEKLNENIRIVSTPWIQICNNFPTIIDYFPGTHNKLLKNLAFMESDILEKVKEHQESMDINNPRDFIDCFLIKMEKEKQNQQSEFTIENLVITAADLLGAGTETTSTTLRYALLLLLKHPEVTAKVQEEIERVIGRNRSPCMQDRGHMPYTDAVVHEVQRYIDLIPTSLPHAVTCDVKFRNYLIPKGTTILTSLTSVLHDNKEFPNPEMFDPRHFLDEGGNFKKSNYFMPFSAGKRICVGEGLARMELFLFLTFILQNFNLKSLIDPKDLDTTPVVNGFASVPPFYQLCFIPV

[31] = molecular target: Cytochrome P450 3A4 (Homo sapiens, UniProt P08684);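 also: CYP3A4 tested as one member of a cytochrome P450 panel screen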
Cytochrome P450 3A4, sequence (P08684 whole entry): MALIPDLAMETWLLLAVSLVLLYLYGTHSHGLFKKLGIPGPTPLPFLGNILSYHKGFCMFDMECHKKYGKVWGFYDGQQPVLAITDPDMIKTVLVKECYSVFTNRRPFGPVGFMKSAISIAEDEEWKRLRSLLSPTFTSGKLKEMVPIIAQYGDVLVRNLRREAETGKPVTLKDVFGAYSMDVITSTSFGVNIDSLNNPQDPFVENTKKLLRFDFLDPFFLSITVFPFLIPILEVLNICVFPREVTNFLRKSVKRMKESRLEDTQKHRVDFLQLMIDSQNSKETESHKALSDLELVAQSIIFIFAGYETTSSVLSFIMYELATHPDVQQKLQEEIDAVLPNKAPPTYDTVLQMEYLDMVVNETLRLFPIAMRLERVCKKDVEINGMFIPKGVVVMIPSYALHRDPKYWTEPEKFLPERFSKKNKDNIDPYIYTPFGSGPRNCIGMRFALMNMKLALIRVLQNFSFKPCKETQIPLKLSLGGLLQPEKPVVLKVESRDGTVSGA

## O=C(COc1ccc(F)cc1)c1c(O)cc(O)cc1O
[1]
  EC50: 3.35 µM (active)

## CCOCCCNc1ccc(N2C(=O)C3CCCCC3C2=O)cc1[N+](=O)[O-] (stereo not given)
[2]
  IC50: 9.18 µM (active)

## S=C(Nc1ccccc1)Nc1cc(Cl)ccc1Oc1ccccc1
[1]
  EC50: 4.73 µM (active)

## CCCc1nc(SCC(=O)c2ccccc2)c2c(=O)n(C)c(=O)n(C)c2n1
[2]
  IC50: 7.89 µM (active)

## COc1ccc2cc(C(=O)Nc3ccc(O)cc3)sc(=O)c2c1OC
[3]
  IC50: 24.8 µM (active)
[4]
  CC50: 25 µM (active)

## CCC(=O)N(Cc1cc2cc(OC)ccc2nc1O)c1ccc(C)cc1C
[5]
  EC50: > 50 µM (active)

## CC(CCc1ccccc1)NC(=O)COC(=O)c1ccc(NC(=O)CC#N)cc1 (stereo not given)
[6]
  EC50: > 150 µM (inconclusive)
[7]
  EC50: > 150 µM (not active)
[8]
  EC50: > 150 µM (not active)
[9]
  EC50: > 150 µM (not active)

## Cc1cc(C)c(NC(=O)COC(=O)Cc2ccsc2)c(C)c1
[2]
  IC50: > 50 µM (not active)

## CN(C)C=O.N#Cc1ccc(Cl)cc1NC(=O)CSc1nc(O)c2c(C(F)(F)F)cc(-c3cccs3)nc2n1
[10]
  IC50: 6.22 µM (inactive)
[11]
  IC50: > 20 µM (inactive)
[12]
  IC50: > 20 µM (inactive)
[13]
  IC50: 9.55 µM (active)
[14]
  EC50: > 150 µM (not active)
[15]
  EC50: > 150 µM (not active)
[16]
  EC50: 5.63 µM (active)
[17]
  EC50: 8.42 µM (active)
[18]
  EC50: 7.34 µM (active)

## Cc1ccc(/C=C2\SC(=S)N(CCCC(=O)Nc3cc(C)on3)C2=O)cc1
[19]
  IC50: > 80 µM (inactive)
[20]
  EC50: 51.7 µM (active)
[21]
  EC50: 15.3 µM (active)
[22]
  EC50: 14.6 µM (active)

## C=CCSc1nnc2n(-c3ccccc3OC)c(=O)c3c4c(sc3n12)CCC4
[1]
  EC50: 4.73 µM (active)

## COC(=O)c1sccc1N=C(S)NCc1ccc(Cl)cc1
[5]
  EC50: > 50 µM (active)

## N=c1sc2c(n1Cc1ccccc1)CCCC2
[5]
  EC50: > 50 µM (active)

## Cc1nc2nc(COc3ccccc3)nn2c(C)c1Cl
[5]
  EC50: > 50 µM (active)

## Cc1c(CN2CCC(CO)(Cc3cccc(C(F)(F)F)c3)CC2)c2ccccc2n1C
[23]
  EC50: > 60 µM (not active)
[4]
  CC50: 9.2 µM (active)
[24]
  CC50: 18.1 µM (active)
[25]
  EC50: 0.969 µM (active)

## CC(=O)Nc1ccc(S(=O)(=O)N2c3ccc(F)cc3CCC2C)cc1 (stereo not given)
[6]
  EC50: 16 µM (active)
[26]
  IC50: > 80 µM (inactive)
[7]
  EC50: 92.3 µM (active)
[8]
  EC50: 16 µM (active)
[9]
  EC50: 13.5 µM (active)

## CCCCC(CC)c1nnc(NC(=O)c2cccs2)s1 (stereo not given)
[1]
  EC50: 5.31 µM (active)
[27]
  EC50: > 79.4 µM (not active)
[2]
  IC50: 8.06 µM (not active)
[28]
  EC50: > 79.4 µM (not active)
[29]
  EC50: > 79.4 µM (not active)

## CNC(=O)CSc1nc2nn(-c3ccccc3)c(=O)c-2c2n1CCCCC2
[19]
  IC50: > 80 µM (inactive)

## Cn1/c(=N\C(=O)CCl)sc2ccccc21
[30]
  AC50: 20 µM (inconclusive)
[19]
  IC50: > 80 µM (inactive)
[23]
  EC50: < 6 µM (inconclusive)
[25]
  EC50: 0.973 µM (active)
[31]
  AC50: 15.8 µM (inconclusive)

## N=c1ccn2c(n1)O[C@H]1[C@H](O)[C@@H](CO)O[C@H]12
[19]
  IC50: > 80 µM (inactive)
